Measurements as given in patent US20100298141A1, “SUBSTITUTED PYRIDINE N-OXIDE HERBICIDES” (E. I. DU PONT DE NEMOURS AND COMPANY, priority 2007, published 2010).

Tests used:
[1] = system: Goosegrass; assay: Test C pre-/postemergence test; type: in vivo, Eleusin indica
Procedure, shortened: (§1)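 Compounds in a non-phytotoxic solvent with surfactant applied preemergence to seeded pots and, at the same time, postemergence to plants 2–18 cm tall (1- to 4-leaf stage). Paddy tests: pots flooded to 3 cm, compound applied into the water, depth held throughout.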

[2] = system: common groundsel; assay: Test F preemergence test; type: in vivo, Senecio vulgaris; conditions: scale 0 to 100
Procedure, shortened: (§2)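 Compound in a non-phytotoxic solvent blend with surfactant is applied preemergence to planted seeds or postemergence to sugarcane plants. Plants and controls stay in the greenhouse 14 to 21 days before visual comparison.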

[3] = system: umbrella sedge; assay: Test C flooded paddy test; type: in vivo, Cyperus difformis; conditions: Flood
Procedure, shortened: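 Pots were flooded to 3 cm above the soil surface at treatment, compound applied directly to the paddy water, and that depth held throughout. Plants were kept in a greenhouse for 13 to 15 days, then visually rated against untreated controls.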

[4] = system: annual bluegrass; assay: Test F preemergence test; type: in vivo, Poa annua; conditions: scale 0 to 100
Procedure, shortened: as §2

[5] = system: quackgrass; assay: Test F preemergence test; type: in vivo, Elytrigia repens; conditions: scale 0 to 100
Procedure, shortened: as §2

[6] = system: mustard; assay: Test F preemergence test; type: in vivo, Brassica nigra; conditions: scale 0 to 100
Procedure, shortened: as §2

[7] = system: crabgrass; assay: Test C pre-/postemergence test; type: in vivo, Digitaria sanguinalis
Procedure, shortened: as §1

[8] = system: dallisgrass; assay: Test F preemergence test; type: in vivo, Paspalum dilatatum; conditions: scale 0 to 100
Procedure, shortened: as §2

[9] = system: green foxtail; assay: Test F preemergence test; type: in vivo, Setaria viridis; conditions: scale 0 to 100
Procedure, shortened: as §2

[10] = system: wheat; assay: Test A pre-/postemergence greenhouse test; type: in vivo, Triticum aestivum; conditions: for Plant response rating, Wheat: 0 to 100 scale where 0 is no effect and 100 is complete control; for Wheat plant response rating: 0 to 100 scale
Procedure, shortened: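 Pots of loam–sand soil sown with the test species are sprayed preemergence on the soil surface; emerged seedlings (1–2 leaves, 2–10 cm) are sprayed postemergence at the same time. The vehicle is a non-phytotoxic solvent mixture with surfactant. Injury is scored visually after ~10 d in greenhouse.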

[11] = system: kochia; assay: Test F preemergence test; type: in vivo, Kochia scoparia; conditions: scale 0 to 100
Procedure, shortened: as §2

[12] = system: common mallow; assay: Test F preemergence test; type: in vivo, Malva sylvestris; conditions: scale 0 to 100
Procedure, shortened: as §2

[13] = 62 g ai/ha, Preemergence, scale 0 to 100
[14] = 125 g ai/ha, preemergence, scale 0 (no effect) to 100 (complete control)
[15] = Postemergence, 62 g ai/ha, scale 0 to 100, 0 no effect, 100 complete control
[16] = Postemergence, 125 g ai/ha, scale 0 to 100, 0 no effect, 100 complete control
[17] = Postemergence, 250 g ai/ha, scale 0 to 100, 0 no effect, 100 complete control
[18] = Preemergence, 31 g ai/ha, scale 0 to 100 (0 no effect, 100 complete control)
[19] = preemergence, 250 g ai/ha, scale 0 (no effect) to 100 (complete control)
[20] = 62 g ai/ha, scale 0 to 100 (0 no effect, 100 complete control)
[21] = 250 g ai/ha, scale 0 to 100, 0 no effect, 100 complete control, 13 to 15 days
[22] = Postemergence, 500 g ai/ha, 0 is no effect, 100 is complete control
[23] = Preemergence, 125 g ai/ha, 0 no effect, 100 complete control

## Cn1nc(C(F)(F)F)c(C[S+]([O-])c2ccc(Cl)c[n+]2[O-])c1OCC(F)(F)F (racemic) [Compound 62]
[1]; [13]
  Goosegrass plant response rating: 100
[1]; [14]
  Goosegrass plant response rating: 100
[1]; Postemergence, 31 g ai/ha
  Plant response rating (0 to 100), Goosegrass: 0
[1]; [15]
  Plant response rating, Goosegrass: 0
[1]; [16]
  Plant response rating, Goosegrass: 10
[1]; [17]
  Plant response rating, Goosegrass: 50
[1]; [18]
  Plant response rating, Goosegrass: 100
[1]; [19]
  Goosegrass plant response rating: 100
[2]; 16 g ai/ha, preemergence
  Plant response rating, Groundsel: 0
[2]; 62 g ai/ha, Preemergence
  Groundsel plant response rating: 80
[2]; 125 g ai/ha, preemergence
  Groundsel plant response rating: 90
[2]; Preemergence, 31 g ai/ha
  Plant response rating, Groundsel: 70
[3]; [20]
  Plant response rating, Sedge, Umbrella: 0
[3]; [21]
  Plant response rating, Sedge, Umbrella: 100
[4]; 16 g ai/ha, preemergence
  Plant response rating, Bluegrass: 20
[4]; 62 g ai/ha, Preemergence
  Bluegrass plant response rating: 80
[4]; 125 g ai/ha, preemergence
  Bluegrass plant response rating: 100
[4]; Preemergence, 31 g ai/ha
  Plant response rating, Bluegrass: 70
[5]; 16 g ai/ha, preemergence
  Plant response rating, Quackgrass: 40
[5]; 62 g ai/ha, Preemergence
  Quackgrass plant response rating: 75
[5]; 125 g ai/ha, preemergence
  Quackgrass plant response rating: 98
[5]; Preemergence, 31 g ai/ha
  Plant response rating, Quackgrass: 75
[6]; 16 g ai/ha, preemergence
  Plant response rating, Black Mustard: 20
[6]; 62 g ai/ha, Preemergence
  Black Mustard plant response rating: 90
[6]; 125 g ai/ha, preemergence
  Black Mustard plant response rating: 98
[6]; Preemergence, 31 g ai/ha
  Plant response rating, Black Mustard: 0
[7]; [13]
  Crabgrass, Large plant response rating: 80
[7]; [14]
  Crabgrass, Large plant response rating: 100
[7]; Postemergence, 31 g ai/ha
  Plant response rating (0 to 100), Crabgrass, Large: 0
[7]; [15]
  Plant response rating, Crabgrass, Large: 0
[7]; [16]
  Plant response rating, Crabgrass, Large: 0
[7]; [17]
  Plant response rating, Crabgrass, Large: 50
[7]; [18]
  Plant response rating, Crabgrass, Large: 60
[7]; [19]
  Crabgrass, Large plant response rating: 100
[8]; 16 g ai/ha, preemergence
  Plant response rating, Dallisgrass: 0
[8]; 62 g ai/ha, Preemergence
  Dallisgrass plant response rating: 98
[8]; 125 g ai/ha, preemergence
  Dallisgrass plant response rating: 98
[8]; Preemergence, 31 g ai/ha
  Plant response rating, Dallisgrass: 60
[9]; 16 g ai/ha, preemergence
  Plant response rating, Foxtail, Green: 20
[9]; 62 g ai/ha, Preemergence
  Foxtail, Green plant response rating: 80
[9]; 125 g ai/ha, preemergence
  Foxtail, Green plant response rating: 100
[9]; Preemergence, 31 g ai/ha
  Plant response rating, Foxtail, Green: 65
[10]; Postemergence, 125 g ai/ha
  Plant response rating, Wheat: 60
[10]; [22]
  Wheat plant response rating: 60
[10]; [23]
  Wheat plant response rating: 70
[10]; Preemergence, 500 g ai/ha
  Plant response rating, Wheat: 100
[11]; 16 g ai/ha, preemergence
  Plant response rating, Kochia: 0
[11]; 62 g ai/ha, Preemergence
  Kochia plant response rating: 15
[11]; 125 g ai/ha, preemergence
  Kochia plant response rating: 100
[11]; Preemergence, 31 g ai/ha
  Plant response rating, Kochia: 0
[12]; 16 g ai/ha, preemergence
  Plant response rating, Mallow: 0
[12]; 62 g ai/ha, Preemergence
  Mallow plant response rating: 98
[12]; 125 g ai/ha, preemergence
  Mallow plant response rating: 100
[12]; Preemergence, 31 g ai/ha
  Plant response rating, Mallow: 80

## CCn1nc(C(F)(F)F)c(C[S+]([O-])c2cc(C)cc[n+]2[O-])c1OCC(F)(F)F (racemic) [Compound 66]
[1]; [13]
  Goosegrass plant response rating: 100
[1]; [14]
  Goosegrass plant response rating: 100
[1]; [18]
  Plant response rating, Goosegrass: 100
[1]; [19]
  Goosegrass plant response rating: 100
[2]; 62 g ai/ha, Preemergence
  Groundsel plant response rating: 80
[2]; 125 g ai/ha, preemergence
  Groundsel plant response rating: 100
[2]; Preemergence, 31 g ai/ha
  Plant response rating, Groundsel: 20
[3]; [20]
  Plant response rating, Sedge, Umbrella: 85
[3]; [21]
  Plant response rating, Sedge, Umbrella: 100
[4]; 16 g ai/ha, preemergence
  Plant response rating, Bluegrass: 0
[4]; 62 g ai/ha, Preemergence
  Bluegrass plant response rating: 70
[4]; 125 g ai/ha, preemergence
  Bluegrass plant response rating: 80
[4]; Preemergence, 31 g ai/ha
  Plant response rating, Bluegrass: 20
[5]; 16 g ai/ha, preemergence
  Plant response rating, Quackgrass: 70
[5]; 62 g ai/ha, Preemergence
  Quackgrass plant response rating: 85
[5]; 125 g ai/ha, preemergence
  Quackgrass plant response rating: 100
[5]; Preemergence, 31 g ai/ha
  Plant response rating, Quackgrass: 75
[6]; 16 g ai/ha, preemergence
  Plant response rating, Black Mustard: 50
[6]; 62 g ai/ha, Preemergence
  Black Mustard plant response rating: 100
[6]; 125 g ai/ha, preemergence
  Black Mustard plant response rating: 100
[6]; Preemergence, 31 g ai/ha
  Plant response rating, Black Mustard: 65
[7]; [13]
  Crabgrass, Large plant response rating: 100
[7]; [14]
  Crabgrass, Large plant response rating: 100
[7]; [18]
  Plant response rating, Crabgrass, Large: 100
[7]; [19]
  Crabgrass, Large plant response rating: 100
[8]; 16 g ai/ha, preemergence
  Plant response rating, Dallisgrass: 0
[8]; 62 g ai/ha, Preemergence
  Dallisgrass plant response rating: 95
[8]; 125 g ai/ha, preemergence
  Dallisgrass plant response rating: 100
[8]; Preemergence, 31 g ai/ha
  Plant response rating, Dallisgrass: 65
[9]; 16 g ai/ha, preemergence
  Plant response rating, Foxtail, Green: 10
[9]; 62 g ai/ha, Preemergence
  Foxtail, Green plant response rating: 90
[9]; 125 g ai/ha, preemergence
  Foxtail, Green plant response rating: 100
[9]; Preemergence, 31 g ai/ha
  Plant response rating, Foxtail, Green: 60
[10]; Postemergence, 125 g ai/ha
  Plant response rating, Wheat: 60
[10]; [22]
  Wheat plant response rating: 70
[10]; [23]
  Wheat plant response rating: 70
[10]; Preemergence, 500 g ai/ha
  Plant response rating, Wheat: 100
[11]; 16 g ai/ha, preemergence
  Plant response rating, Kochia: 0
[11]; 62 g ai/ha, Preemergence
  Kochia plant response rating: 15
[11]; 125 g ai/ha, preemergence
  Kochia plant response rating: 90
[11]; Preemergence, 31 g ai/ha
  Plant response rating, Kochia: 0
[12]; 16 g ai/ha, preemergence
  Plant response rating, Mallow: 0
[12]; 62 g ai/ha, Preemergence
  Mallow plant response rating: 80
[12]; 125 g ai/ha, preemergence
  Mallow plant response rating: 100
[12]; Preemergence, 31 g ai/ha
  Plant response rating, Mallow: 70
